Several values for one entry are separate records, joined by “and”; a condition that tells them apart may be missing. Identical values can stand only once.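 Dose response: 5 concentrations. Exposure: 48 h. Format: 96-well plates. Endpoint: linear interpolation; highest concentration if not reached. GI50: concentration for 50% inhibition of growth. TGI marks complete inhibition of growth.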

Some test systems named below: A549 NSCLC; OVCAR-8 ovarian; IGROV1 ovarian; HCC-2998 colon; OVCAR-3 ovarian; MALME-3M melanoma; HCT-116 colon; UO-31 renal; MCF7 breast; MDA-N.
What all share (assay): NCI tumour cell line growth inhibition, 48 h

Regarding `Nc1nc(SCCC/C=C/I)nc2c1ncn2C1OC(COP(=O)(O)O)C(O)C1O` (centres undefined), the TGI in the assay with A549 NSCLC, in the assay on OVCAR-8 ovarian, with IGROV1 ovarian, in the assay with HCC-2998 colon, in the assay on OVCAR-3 ovarian and in the assay on MALME-3M melanoma was over 100 µM throughout. Moreover, in the assay on HCT-116 colon, the TGI was over 100 µM.

Regarding `O=C1C=C[C@@H](COC2OC(CO)C(O)C(O)C2O)O1` (some centres undefined), the GI50 was 16.7 µM with A549 NSCLC; 4.61 µM in the assay with OVCAR-8 ovarian; 14.2 µM with IGROV1 ovarian; 1.24 µM with MCF7 breast; 10.6 µM with OVCAR-3 ovarian; 12.5 µM with MALME-3M melanoma. Also, the GI50 with HCT-116 colon was 2.63 µM. In addition, the TGI was 76.9 µM and 62.6 µM in the assay on A549 NSCLC; 85 µM in the assay on UO-31 renal; > 100 µM and 66.5 µM in the assay on OVCAR-8 ovarian; 34.9 µM and 83.1 µM in the assay with IGROV1 ovarian; over 100 µM with HCC-2998 colon; 3.81 µM and 19.6 µM in the assay with MCF7 breast. Moreover, the TGI with OVCAR-3 ovarian was 22.4 µM and 31.5 µM; with MALME-3M melanoma it was 31.9 µM; in the assay on HCT-116 colon, 10.5 µM and > 100 µM.

As for `Oc1ccccc1CNCc1nc2ccccc2[nH]1`, the TGI was over 100 µM in the assay with A549 NSCLC; 49.1 µM in the assay on UO-31 renal; over 100 µM with OVCAR-8 ovarian; over 100 µM in the assay on IGROV1 ovarian; over 100 µM in the assay with HCC-2998 colon; over 100 µM in the assay with MCF7 breast. The TGI with OVCAR-3 ovarian, in the assay with HCT-116 colon and in the assay on MDA-N was over 100 µM in each case.

As for `COc1ccc(-n2c(C)nc3ccc(NC(=S)Nc4ccccc4)cc3c2=O)cc1`, the TGI in the assay with UO-31 renal, in the assay with OVCAR-8 ovarian, in the assay with IGROV1 ovarian, in the assay on HCC-2998 colon, with MCF7 breast and with OVCAR-3 ovarian was over 100 µM in each case. Further, the TGI with MALME-3M melanoma and with HCT-116 colon was over 100 µM each time.

Regarding `COc1cccc(Nc2nc(-c3cccs3)nc3cc(OC)c(OC)cc23)c1`, the TGI with A549 NSCLC was over 100 µM; in the assay with UO-31 renal, over 100 µM; in the assay on OVCAR-8 ovarian it was 78.5 µM; in the assay on IGROV1 ovarian, 69.3 µM; in the assay on MCF7 breast it was 49.2 µM; with OVCAR-3 ovarian, 51.1 µM. Besides, the values for the TGI in the assay on MALME-3M melanoma and with HCT-116 colon were over 100 µM and 54 µM, respectively.

For `CC(=O)Oc1cccc2c1C(=O)CCCC2`, the TGI in the assay with A549 NSCLC, in the assay on UO-31 renal, in the assay on OVCAR-8 ovarian, in the assay on IGROV1 ovarian, in the assay on HCC-2998 colon and with MCF7 breast was over 100 µM in each case. For the same compound, the TGI with OVCAR-3 ovarian, with MALME-3M melanoma and with HCT-116 colon was over 100 µM in each case.

With `O=C(c1ccccn1)C1(N2CCCCC2)CCCCC1`, the TGI with A549 NSCLC, in the assay on UO-31 renal, in the assay on OVCAR-8 ovarian, in the assay on IGROV1 ovarian, in the assay with HCC-2998 colon and in the assay on MCF7 breast was over 100 µM in each case. For the same compound, the TGI with OVCAR-3 ovarian, in the assay on HCT-116 colon and in the assay with MDA-N was over 100 µM throughout.

On to `N#C/C(=C1/Sc2c(nc[nH]c2=O)N1c1ccccc1)c1nc2ccccc2[nH]1`, for which the TGI with A549 NSCLC, in the assay with UO-31 renal, in the assay on OVCAR-8 ovarian, with IGROV1 ovarian, in the assay on HCC-2998 colon and with OVCAR-3 ovarian was over 100 µM in each case. The TGI with MALME-3M melanoma and with HCT-116 colon was over 100 µM in each case.

On to `O=C(Cc1ccc(O)c(O)c1)NCc1c[nH]c2ccccc12`, for which the TGI with A549 NSCLC, with UO-31 renal, in the assay on OVCAR-8 ovarian, in the assay on HCC-2998 colon, in the assay on MCF7 breast and in the assay with OVCAR-3 ovarian was over 100 µM throughout. The TGI in the assay on MALME-3M melanoma was 76.5 µM; in the assay on HCT-116 colon, over 100 µM.

As to `Cc1ccc(NC(=O)CC2Sc3ccccc3NC2=O)cc1C` (centres undefined), the TGI in the assay with A549 NSCLC, with UO-31 renal, in the assay on OVCAR-8 ovarian, with IGROV1 ovarian, in the assay with HCC-2998 colon and with OVCAR-3 ovarian was over 100 µM each time. For the same compound, the TGI in the assay on MALME-3M melanoma and in the assay on HCT-116 colon was over 100 µM throughout.

As to `CC1CN(C)c2ccccc2N=C1NN` (centres undefined), the TGI with A549 NSCLC, in the assay with UO-31 renal, with OVCAR-8 ovarian, with IGROV1 ovarian, in the assay with OVCAR-3 ovarian and in the assay on MALME-3M melanoma was over 100 µM each time. For the same compound, the TGI in the assay on HCT-116 colon and in the assay on MDA-N was over 100 µM each time.

For `Nc1c(S(=O)(=O)O)cc2cc(S(=O)(=O)O)ccc2c1N=Nc1ccc(-c2ccc(N=Nc3c(N)c(S(=O)(=O)O)cc4cc(S(=O)(=O)O)ccc34)c(S(=O)(=O)O)c2)cc1`, the TGI was over 100 µM in the assay with A549 NSCLC; over 100 µM in the assay on UO-31 renal; over 100 µM in the assay with OVCAR-8 ovarian; over 100 µM with IGROV1 ovarian; over 100 µM in the assay with HCC-2998 colon; 51.4 µM in the assay on MCF7 breast. For the same compound, the TGI in the assay on OVCAR-3 ovarian, with MALME-3M melanoma and in the assay with HCT-116 colon was over 100 µM in each case.

Take `O=c1[nH]c(=S)[nH]c2c1C(c1ccc([N+](=O)[O-])cc1)c1c([nH]c(=S)[nH]c1=O)O2`: the TGI with A549 NSCLC, in the assay on UO-31 renal, in the assay on OVCAR-8 ovarian, in the assay with IGROV1 ovarian, in the assay on MCF7 breast and in the assay on OVCAR-3 ovarian was over 100 µM each time. The TGI in the assay on HCT-116 colon and in the assay on MDA-N was over 100 µM in each case.

Turning to `COc1ccc(/C=c2\sc3n(c2=O)CCN=3)cc1`, the TGI in the assay with A549 NSCLC, in the assay with UO-31 renal, in the assay with OVCAR-8 ovarian, with HCC-2998 colon, with OVCAR-3 ovarian and with MALME-3M melanoma was over 100 µM each time. In the assay on HCT-116 colon, this compound registered a TGI of over 100 µM.

On to `Cc1cc(C)nc(NS(=O)(=O)c2ccc(NC(=O)c3ccc4nc5ccccc5c(Nc5ccc(S(N)(=O)=O)cc5)c4c3)cc2)n1`, for which the TGI in the assay with A549 NSCLC, in the assay on UO-31 renal, with OVCAR-8 ovarian, with IGROV1 ovarian, with HCC-2998 colon and in the assay on MCF7 breast was over 100 µM each time. The TGI with OVCAR-3 ovarian, in the assay with MALME-3M melanoma and in the assay on HCT-116 colon was over 100 µM in each case.

For the compound `O=C(OCc1ccccc1)N1CCNCCN(C(=O)OCc2ccccc2)CCNCC1`, the TGI with A549 NSCLC was over 100 µM; in the assay with UO-31 renal, 38.5 µM; with OVCAR-8 ovarian it was over 100 µM; in the assay with IGROV1 ovarian it was over 100 µM; in the assay on MCF7 breast, 38.8 µM; in the assay with OVCAR-3 ovarian, over 100 µM. In addition, the TGI is 42.9 µM in the assay with HCT-116 colon and 31 µM in the assay with MDA-N.

For the compound `O=[N+]([O-])c1ccc2[nH]nc(OCc3ccccc3Cl)c2c1`, the TGI in the assay on A549 NSCLC is over 100 µM; with OVCAR-8 ovarian it was over 100 µM; in the assay on IGROV1 ovarian it was over 100 µM; in the assay on HCC-2998 colon it was over 100 µM; in the assay with OVCAR-3 ovarian, 73.9 µM; in the assay on MALME-3M melanoma, over 100 µM. Besides, the TGI in the assay with HCT-116 colon is 74.7 µM; in the assay with MDA-N it was over 100 µM.

As to `COc1ccc(CN2C(=O)/C(=C\c3cc(OC)c(OC)c(OC)c3)c3ccccc32)cc1`, the GI50 with A549 NSCLC was 2.51 µM; with UO-31 renal it was 1.18 µM; in the assay with OVCAR-8 ovarian it was 3.05 µM; in the assay on IGROV1 ovarian it was 1.72 µM; in the assay with HCC-2998 colon, 1.78 µM; in the assay on MCF7 breast it was 2.86 µM. Moreover, the values for the GI50 in the assay with OVCAR-3 ovarian, in the assay with MALME-3M melanoma and with HCT-116 colon were 1.62 µM, 0.562 µM and 1.61 µM, respectively. In addition, the TGI in the assay on A549 NSCLC was over 100 µM; with UO-31 renal it was 2.91 µM; in the assay on OVCAR-8 ovarian, over 100 µM; with IGROV1 ovarian, 4.64 µM; with HCC-2998 colon, 3.31 µM; with MCF7 breast, 15.9 µM. Besides, the TGI in the assay with OVCAR-3 ovarian is 3.22 µM; with MALME-3M melanoma, 3.3 µM; in the assay on HCT-116 colon, 3.05 µM.

With `c1ccc2c3[nH]c(c2c1)=Nc1ccc(cc1)-c1nc2cc(ccc2o1)N=c1[nH]c(c2ccccc12)=Nc1ccc2nc(oc2c1)-c1ccc(cc1)N=3`, the TGI with UO-31 renal, in the assay with IGROV1 ovarian, in the assay on HCC-2998 colon, in the assay on MCF7 breast, in the assay on HCT-116 colon and in the assay on MDA-N was over 100 µM in each case.

Consider `CCC(=O)NC(Nc1cc(C)on1)(C(F)(F)F)C(F)(F)F`, for which the TGI with A549 NSCLC, with UO-31 renal, with OVCAR-8 ovarian, in the assay on IGROV1 ovarian, in the assay with HCC-2998 colon and with MCF7 breast was over 100 µM each time. The TGI with OVCAR-3 ovarian, in the assay on MALME-3M melanoma and in the assay on HCT-116 colon was over 100 µM throughout.

With `COC(=O)[C@@H](O)[C@](O)(CCC(C)C)C(=O)O[C@@H]1C(OC)=C[C@]23CCCN2CCc2cc4c(cc2[C@H]13)OCO4`, the TGI with A549 NSCLC came to 5.19 µM; in the assay on UO-31 renal, 8.42 µM; with OVCAR-8 ovarian it was 6.51 µM; in the assay on IGROV1 ovarian, 20 µM; in the assay on HCC-2998 colon, 2.32 µM; with MCF7 breast, 2.18 µM. In addition, the TGI in the assay with OVCAR-3 ovarian was 7.15 µM; in the assay with MALME-3M melanoma, 1.94 µM; with HCT-116 colon, 2.57 µM.

The values above are taken from PubChem BioAssay (NCI).
